According to publication PMC6940761, “Novel Diels–Alder Type Adducts from Morus alba Root Bark Targeting Human Monoamine Oxidase and Dopaminergic Receptors for the Management of Neurodegenerative Diseases” (International Journal of Molecular Sciences, 2019):
“And” between values parts separate entries of the source, which are not always exact repeats. Equal entries are not always repeated. Where two headings read alike, the source gives them in different places.

Experiments:
[1] = biological target: human dopamine D3 receptor (hD3R) (Homo sapiens, UniProt P35462); assay: cell-based functional GPCR assay, cAMP modulation, CHO-D3R; settings: for % Stimulation of control agonist response: D3 (h), 100 µM test compound, control 300 nM DA; for agonist response (%): D3R, 25 µM test compound; for inhibition at 100 µM: read-out: % Inhibition of control agonist response
Sequence of human dopamine D3 receptor (hD3R) (P35462 whole entry): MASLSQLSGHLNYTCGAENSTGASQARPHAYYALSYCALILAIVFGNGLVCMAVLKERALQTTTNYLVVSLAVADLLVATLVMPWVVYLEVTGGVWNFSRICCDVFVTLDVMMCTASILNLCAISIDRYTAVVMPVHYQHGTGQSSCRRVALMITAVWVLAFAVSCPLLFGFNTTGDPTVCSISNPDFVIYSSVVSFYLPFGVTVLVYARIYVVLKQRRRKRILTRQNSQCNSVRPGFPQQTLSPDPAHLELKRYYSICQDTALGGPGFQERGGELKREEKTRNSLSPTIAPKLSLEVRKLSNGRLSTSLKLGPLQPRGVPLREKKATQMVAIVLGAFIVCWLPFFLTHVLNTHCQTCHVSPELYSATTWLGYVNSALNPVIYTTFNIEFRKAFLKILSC

[2] = biological target: T1, Human Monoamine Oxidase B (hMAO-B) (Homo sapiens, UniProt P27338); assay: hMAO-B inhibition, MAO-Glo chemiluminescent assay and enzyme kinetics; assay type: biochemical; settings: for Inhibition Type: Lineweaver–Burk and Dixon plots; for IC50: log dose-inhibition curve, triplicate, read-out: IC50 (μM, Mean ± SD)
T1 construct: purchased Sigma-Aldrich
T1 sequence (P27338 1-520): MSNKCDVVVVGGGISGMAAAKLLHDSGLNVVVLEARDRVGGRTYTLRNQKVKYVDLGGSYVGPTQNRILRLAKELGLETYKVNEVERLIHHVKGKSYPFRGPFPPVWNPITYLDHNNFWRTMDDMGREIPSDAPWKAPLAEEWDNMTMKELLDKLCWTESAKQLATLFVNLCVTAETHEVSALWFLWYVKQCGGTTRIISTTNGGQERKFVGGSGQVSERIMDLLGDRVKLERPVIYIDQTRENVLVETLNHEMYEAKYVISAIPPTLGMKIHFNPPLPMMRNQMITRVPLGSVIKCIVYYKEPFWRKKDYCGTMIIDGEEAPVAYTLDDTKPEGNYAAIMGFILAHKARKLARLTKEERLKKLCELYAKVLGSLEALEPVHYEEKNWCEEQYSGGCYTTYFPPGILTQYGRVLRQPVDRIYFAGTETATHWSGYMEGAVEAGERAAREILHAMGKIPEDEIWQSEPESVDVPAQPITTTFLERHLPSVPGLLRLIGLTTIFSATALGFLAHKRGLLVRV

[3] = biological target: T2, Human Monoamine Oxidase A (hMAO-A) (Homo sapiens, UniProt P21397); assay: hMAO-A inhibition, MAO-Glo chemiluminescent assay and enzyme kinetics; assay type: biochemical; settings: for Inhibition Type: Lineweaver–Burk and Dixon plots
T2 construct: purchased Sigma-Aldrich
T2 sequence (P21397 1-527): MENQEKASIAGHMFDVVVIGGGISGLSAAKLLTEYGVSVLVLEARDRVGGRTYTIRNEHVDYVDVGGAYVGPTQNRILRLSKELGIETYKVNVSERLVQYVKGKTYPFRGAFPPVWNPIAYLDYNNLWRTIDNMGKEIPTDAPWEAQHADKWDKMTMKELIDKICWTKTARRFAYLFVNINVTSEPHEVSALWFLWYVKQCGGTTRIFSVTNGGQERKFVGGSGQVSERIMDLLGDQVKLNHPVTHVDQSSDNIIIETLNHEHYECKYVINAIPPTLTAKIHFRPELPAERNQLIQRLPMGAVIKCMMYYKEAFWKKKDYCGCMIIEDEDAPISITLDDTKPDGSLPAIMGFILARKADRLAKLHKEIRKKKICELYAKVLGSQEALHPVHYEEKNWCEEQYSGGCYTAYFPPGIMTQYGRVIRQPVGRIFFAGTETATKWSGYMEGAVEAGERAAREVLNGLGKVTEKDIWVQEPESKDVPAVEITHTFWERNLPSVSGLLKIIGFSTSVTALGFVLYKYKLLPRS

[4] = tested on: hMAO; assay: initial hMAO activity screen at 100 µg/mL (MAO-Glo); assay type: biochemical, human; settings: isozyme not stated
[5] = biological target: human dopamine D1 receptor (hD1R) (Homo sapiens, UniProt P21728); assay: cell-based functional GPCR assay, cAMP modulation, CHO-D1R; settings: for % Stimulation of control agonist response: D1 (h), 100 µM test compound, control 10 μM DA; for inhibition at 100 µM: read-out: % Inhibition of control agonist response; for inhibition at 25 µM: read-out: % inhibition of DA response
Sequence of human dopamine D1 receptor (hD1R) (P21728 whole entry): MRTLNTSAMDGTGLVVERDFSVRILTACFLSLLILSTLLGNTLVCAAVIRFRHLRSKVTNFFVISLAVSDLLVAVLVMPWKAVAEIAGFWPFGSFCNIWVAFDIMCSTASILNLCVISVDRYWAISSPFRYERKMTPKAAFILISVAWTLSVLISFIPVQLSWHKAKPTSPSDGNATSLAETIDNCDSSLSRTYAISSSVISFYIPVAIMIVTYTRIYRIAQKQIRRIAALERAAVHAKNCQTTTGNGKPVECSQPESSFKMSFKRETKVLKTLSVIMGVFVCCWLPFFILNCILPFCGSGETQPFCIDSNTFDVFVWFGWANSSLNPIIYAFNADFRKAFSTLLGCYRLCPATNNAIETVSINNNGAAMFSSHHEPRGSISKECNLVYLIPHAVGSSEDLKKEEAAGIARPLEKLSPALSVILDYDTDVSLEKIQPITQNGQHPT

[6] = biological target: T3, human dopamine D4 receptor (hD4R) (Homo sapiens, UniProt P21917); assay: cell-based functional GPCR assay, cAMP modulation, CHO-D4R; settings: for % Stimulation of control agonist response: D4 (h), 100 µM test compound, control 300 nM DA; for agonist response (%): D4R, 25 µM test compound; for inhibition at 100 µM: read-out: % Inhibition of control agonist response
T3 sequence (P21917 1-419): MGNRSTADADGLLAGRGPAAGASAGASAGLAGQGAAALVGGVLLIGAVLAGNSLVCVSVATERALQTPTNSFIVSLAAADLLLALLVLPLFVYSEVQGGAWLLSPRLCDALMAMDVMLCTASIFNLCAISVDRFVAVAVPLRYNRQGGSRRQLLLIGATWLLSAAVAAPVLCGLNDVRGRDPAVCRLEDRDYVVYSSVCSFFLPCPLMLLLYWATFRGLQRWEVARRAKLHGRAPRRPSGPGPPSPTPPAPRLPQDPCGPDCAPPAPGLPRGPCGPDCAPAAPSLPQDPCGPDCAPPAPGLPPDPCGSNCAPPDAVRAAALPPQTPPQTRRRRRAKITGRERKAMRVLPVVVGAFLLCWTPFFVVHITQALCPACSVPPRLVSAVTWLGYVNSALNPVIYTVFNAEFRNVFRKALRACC

[7] = biological target: T4, human dopamine D2L receptor (hD2LR) (Homo sapiens, UniProt P14416); assay: cell-based functional GPCR assay, Ca2+ mobilization, CHO-D2LR; settings: for inhibition at 100 µM / % Stimulation of control agonist response: D2L (h), 100 µM test compound; for inhibition at 100 µM: control 700 nM DA, read-out: % Inhibition of control agonist response (converted); for % Stimulation of control agonist response: control 10 μM DA; for inhibition at 25 µM: D2LR, 25 µM test compound, read-out: % inhibition of DA response
T4 construct: host or cells: CHO (CHO-D2LR)
T4 sequence (P14416 whole entry): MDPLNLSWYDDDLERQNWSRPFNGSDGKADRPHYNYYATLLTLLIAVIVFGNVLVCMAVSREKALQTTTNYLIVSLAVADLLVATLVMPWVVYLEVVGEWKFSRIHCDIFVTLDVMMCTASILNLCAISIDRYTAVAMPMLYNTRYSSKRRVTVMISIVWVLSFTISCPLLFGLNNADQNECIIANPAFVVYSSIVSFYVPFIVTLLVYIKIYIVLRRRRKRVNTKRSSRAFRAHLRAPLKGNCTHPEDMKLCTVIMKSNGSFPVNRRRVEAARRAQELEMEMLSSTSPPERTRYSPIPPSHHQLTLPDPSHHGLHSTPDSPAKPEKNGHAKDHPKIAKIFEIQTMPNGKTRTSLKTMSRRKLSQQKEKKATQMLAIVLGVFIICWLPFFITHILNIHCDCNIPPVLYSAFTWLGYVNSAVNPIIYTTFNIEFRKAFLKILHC

[8] = hMAO-A, Dixon plot, read-out: Ki Value
[9] = hMAO-A, log dose-inhibition curve, triplicate, read-out: IC50 (μM, Mean ± SD)
[10] = hD2LR antagonist effect, read-out: IC50 (inhibition of control agonist response)

SMILES	EC50 [1]	% Stimulation of control agonist response [1]	agonist response (%) [1]	inhibition at 100 µM [1]	Ki ([2]; Dixon plot, read-out: Ki Value)	Inhibition Type [2]	IC50 [2]	Ki [3, 8]	Inhibition Type ([3]; hMAO-A)	IC50 [3, 9]	% inhibition of hMAO activity [4]	IC50 [5]	% Stimulation of control agonist response [5]	inhibition at 100 µM [5]	inhibition at 25 µM [5]	% Stimulation of control agonist response [6]	inhibition at 100 µM [6]	inhibition at 100 µM [7]	% Stimulation of control agonist response [7]	inhibition at 25 µM [7]	other results
CC1=C[C@H]2c3c(O)cc(-c4cc5ccc(O)cc5o4)cc3O[C@@]3(c4ccc(O)cc4O)Oc4cc(O)ccc4[C@H](C1)[C@@H]23 [Compound 1, mulberrofuran G]	15.1 µM	119.9% and 119.9 ± 2.44%	71.92%	-28.7%	17 ± 3.31 µM	Noncompetitive	18.1 ± 1.06 µM	27 ± 3.98 µM	Competitive	54.79 ± 0.03 µM	93.87%	6.13 µM	17.2 ± 8.4%	87.7%	92.3%	86.30% and 86.30 ± 0.99%	-20.8%	101%	7.10 ± 1.47%	97.2%	EC50 [6]: 17.2 µM; agonist response (%) [6]: 63.00%; IC50 [7, 10]: 2.41 µM
Cc1cc2c3c(c1)-c1c(O)cc(-c4cc5ccc(O)cc5o4)cc1OC3(c1ccc(O)cc1O)Oc1cc(O)ccc1-2 (stereo not drawn) [Compound 3, albanol B]	12.6 µM	102.8% and 102.8 ± 1.36%	94.93%	-13.4%		mixed type	90.6 ± 1.72 µM	46.9 ± 4.12 µM	Competitive	114 ± 2.3 µM	74.85%	7.16 µM	INTER	67.8%	66.8%	46.10% and 46.10 ± 1.76%	26.9%	78.5%	4.10 ± 1.06%	81.1%	Kiu (binding constant with enzyme-substrate complex) ([2]; secondary plot): 186.2 ± 10.26 µM; Ki ([2]; secondary plot, read-out: Kic (binding constant with free enzyme)): 55.2 ± 7.79 µM; IC50 [7, 10]: 18.4 µM
CC(C)=CCc1c(-c2ccc(O)cc2O)oc2c(C3C=C(C)CC(c4ccc(O)cc4O)C3C(=O)c3ccc(O)cc3O)c(O)cc(O)c2c1=O (stereo not drawn) [Compound 2, kuwanon G]	20.2 µM			-27.4%	52.1 ± 5.56 µM	Noncompetitive	57.7 ± 2.12 µM		Competitive		99.05%	16.5 µM	0.85 ± 0.24%	98.8%	91.1%	90.45% and 90.45 ± 0.14%	-29.6%	99.2%	NSI	33.7%	IC50 [3]: 70.2 ± 2.6 µM; Ki [3]: 28.3 ± 2.02 µM; EC50 [6]: 21 µM; agonist response (%) [6]: 58.66%; IC50 [7]: 31.2 µM
